The source of these data is PubChem BioAssay (NCI).

What all share (test): NCI anticancer screen, dose series, 48 h
Experiment [1] relates to UACC-257 melanoma.
Experiment [2] relates to NCI-H522 lung.
Experiment [3] concerns RPMI-8226 leukemia.
For experiment [4], the system named is IGROV1 ovarian.
In experiment [5] the test system is NCI-H460 lung.
In experiment [6] the test system is U251 CNS.
For experiment [7], the system named is HT29 colon.
Experiment [8] concerns HCT-15 colon.
The subject of experiment [9] is MOLT-4 leukemia.
Experiment [10] deals with NCI/ADR-RES ovarian.

Values joined by “and” are separate entries in the source; they are usually repeats but may differ in a detail not shown here. Equal values may be shown once.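 All cell lines were grown in 96-well plates and treated with compound for 48 hours. GI50 is the concentration that inhibits growth by half. At the TGI there is no net growth.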

As for `CC1(C)CC([P+](c2ccccc2)(c2ccccc2)c2ccccc2)=NN1`, the GI50 is 2820 nM in experiment [1]; 2520 nM in [2]; 4.41 µM in [3]; 6.47 µM in experiment [4]; 6.09 µM in [5]; 2000 nM in experiment [6]. Moreover, the GI50 is 3290 nM in experiment [7], above 100000 nM in [8], 6.03 µM in experiment [9] and above 100000 nM in [10]. Besides, the TGI in experiment [1], in experiment [2], in experiment [3], in experiment [4], in experiment [5] and in experiment [6] was above 100 µM throughout. Besides, the TGI in experiment [7], in experiment [8], in experiment [9] and in [10] was above 100 µM in each case.

Turning to `COc1cc(F)c(/C=C/c2cc(/C=C/c3cc(OC)c(OC)cc3F)n(-c3cc(F)cc(F)c3)n2)cc1OC`, the GI50 is 1480 nM in experiment [1]; 1910 nM in [2]; 3.75 µM in experiment [3]; 4.73 µM in [4]; 3.43 µM in experiment [5]; 1690 nM in [6]. Moreover, the GI50 in experiment [7] is 2270 nM; in [8] it was 2840 nM; in [9] it was 6.64 µM; in experiment [10] it was 2230 nM. The TGI in experiment [1] turned out to be 3.28 µM; in [2], 5.47 µM; in experiment [3], 41.4 µM; in [4] it was 21.1 µM; in experiment [5] it was 12.2 µM; in experiment [6], 3.15 µM. The TGI in experiment [7] is 6.81 µM; in experiment [8], 9.05 µM; in experiment [9] it was above 100 µM; in [10], 5.65 µM.

For the molecule `Cc1ccc(Nc2cc(C)nc(NCCCNc3ccnc4cc(Cl)ccc34)n2)cc1`, the GI50 is 1740 nM in [1]; 1770 nM in experiment [2]; 1.5 µM in experiment [3]; 1.82 µM in experiment [4]; 1.57 µM in [5]; 1320 nM in experiment [6]. Moreover, the GI50 in [7] is 481 nM; in experiment [8], 767 nM; in [9], 2.01 µM; in [10], 1730 nM. Also, the TGI in [1] was found to be 3.22 µM; in experiment [2], 3.37 µM; in [3], 3.95 µM; in experiment [4], 3.98 µM; in [5] it was 3.23 µM; in [6], 2.67 µM. Further, the TGI in [7] is 2.06 µM; in experiment [8], 2.21 µM; in experiment [9] it was 6.67 µM; in [10], 3.54 µM.

On to `CC(C)C[C@H](NC(=O)CCn1ccc2ncccc2c1=O)B(O)O`, for which the GI50 was 8250 nM in [1]; 4260 nM in experiment [2]; 2.82 µM in experiment [3]; 36.5 µM in [4]; 31.9 µM in experiment [5]; 24900 nM in [6]. Also, the GI50 in [7] is 6280 nM; in experiment [8] it was 28100 nM; in [9], 2.9 µM; in experiment [10] it was above 100000 nM. In addition, the TGI was 44.1 µM in [1]; 25 µM in experiment [2]; above 27 µM in experiment [3]; above 94.3 µM in experiment [4]; above 100 µM in experiment [5]; above 100 µM in [6]. Moreover, the TGI in experiment [7] was above 100 µM; in [8], above 100 µM; in [9], above 28.7 µM; in experiment [10] it was above 100 µM.

For `CC(C)C[C@H](NC(=O)[C@@H](NC(=O)c1cccc(-c2ccccc2)n1)[C@@H](C)O)B(O)O`, the GI50 in experiment [1] was 5.02 nM; in experiment [2], 3.02 nM; in [4] it was 0.0256 µM and 0.0229 µM; in experiment [5], 0.0285 µM and 0.0237 µM; in experiment [6], 25.1 nM and 17.6 nM; in [7], 3.96 nM. In addition, the GI50 was 17.6 nM and < 18.2 nM in experiment [8]; 0.00289 µM in experiment [9]; 345 nM and 249 nM in experiment [10]. Also, the TGI in [1] was 0.0319 µM and 0.0213 µM; in experiment [2], 0.00881 µM; in experiment [3], below 0.0108 µM; in experiment [4], 0.171 µM; in experiment [5], 0.532 µM; in [6], 1.92 µM. The TGI in experiment [7] is 0.0233 µM and 0.046 µM; in experiment [8] it was 0.107 µM; in experiment [9], 0.00887 µM; in experiment [10], 6.19 µM.

As to `CN1C[C@@H]2Cn3c(c(C4=C(c5cn(C)c6ccccc56)C(=O)NC4=O)c4ccccc43)C[C@H]2C1`, the GI50 in experiment [1] is 4030 nM and 3930 nM; in experiment [2] it was 4160 nM and 3630 nM; in experiment [3], 5.56 µM and 4.7 µM; in [4] it was 5.73 µM and 6.57 µM; in experiment [5], 4.61 µM and 4.35 µM; in experiment [6], 3590 nM and 2830 nM. In addition, the GI50 in experiment [7] is 3870 nM and 3220 nM; in [8], 4410 nM and 3580 nM; in experiment [9] it was 5.46 µM and 3.49 µM; in [10], 6460 nM and 8530 nM. The TGI is 8.01 µM and 7.6 µM in [1]; 8.15 µM and 7.81 µM in [2]; 11.9 µM and 10.3 µM in experiment [3]; 11 µM and 15 µM in experiment [4]; 8.9 µM in experiment [5]; 7.27 µM and 6.37 µM in experiment [6]. The TGI in experiment [7] is 10.8 µM and 11.6 µM; in experiment [8], 13.1 µM and 10.9 µM; in experiment [9] it was 16.8 µM and 11.9 µM; in experiment [10], 16.8 µM and 25 µM.

Regarding `C=C1C(=O)OC2/C=C(\CO)CC/C=C(\CO)CC(OC(=O)C(C)C)C12` (centres undefined), the TGI in [1] stood at 27 µM; in [2], 4.11 µM; in experiment [3], 25.5 µM; in experiment [4], 33.6 µM; in experiment [5] it was 38.6 µM; in [6], 43.3 µM. In addition, the TGI in [7] is 30 µM; in [8], 11.6 µM; in [9] it was above 27.4 µM; in experiment [10], 45.3 µM.

On to `Cc1ncc(C(=O)Nc2ccc(CN3CCN(C)CC3)c(C(F)(F)F)c2)cc1C#Cc1c(N)ncc2ccccc12`, for which the GI50 in [1] was 477 nM; in experiment [2], 460 nM; in experiment [3] it was 0.396 µM; in experiment [4] it was 0.208 µM; in experiment [5] it was 0.447 µM; in [6] it was 539 nM. For the same molecule, the GI50 in experiment [7] was 97.8 nM; in experiment [8], 382 nM; in experiment [9], 0.228 µM; in experiment [10], 670 nM. The TGI in experiment [1] is 1.06 µM; in experiment [2], 0.992 µM; in [3], 1.26 µM; in [4], 0.823 µM; in experiment [5], 0.952 µM; in experiment [6], 1.07 µM. Further, the TGI in [7] was 0.585 µM; in experiment [8], 0.873 µM; in [9], 0.836 µM; in experiment [10], 1.54 µM.
